Measured values published in ChEMBL document CHEMBL4507276 (2021).

Assays:
[1] = target: Ribosomal protein S6 kinase alpha-1 (Homo sapiens) (UniProt Q15418); conditions: Compound concentration 1000.0 nM
[2] = target: RAC-beta serine/threonine-protein kinase (Homo sapiens) (UniProt P31751); conditions: Compound concentration 1000.0 nM
[3] = target: Calcium/calmodulin-dependent protein kinase kinase 2 (Homo sapiens) (UniProt Q96RR4); conditions: Compound concentration 1000.0 nM
[4] = target: Serine/threonine-protein kinase TAO1 (Homo sapiens) (UniProt Q7L7X3); conditions: Compound concentration 1000.0 nM
[5] = target: MAP kinase-interacting serine/threonine-protein kinase 2 (Homo sapiens) (UniProt Q9HBH9); conditions: Compound concentration 1000.0 nM
[6] = target: Dual specificity mitogen-activated protein kinase kinase 2 (Homo sapiens) (UniProt P36507); conditions: Compound concentration 1000.0 nM
[7] = target: Receptor-interacting serine/threonine-protein kinase 1 (Homo sapiens) (UniProt Q13546); conditions: Compound concentration 1000.0 nM
[8] = target: Mitogen-activated protein kinase 9 (Homo sapiens) (UniProt P45984); conditions: Compound concentration 1000.0 nM
[9] = target: Mitogen-activated protein kinase kinase kinase 1 (Homo sapiens) (UniProt Q13233); conditions: Compound concentration 1000.0 nM
[10] = target: T1, Ephrin type-B receptor 3 (Homo sapiens) (UniProt P54753); conditions: Compound concentration 1000.0 nM
T1 sequence (whole entry): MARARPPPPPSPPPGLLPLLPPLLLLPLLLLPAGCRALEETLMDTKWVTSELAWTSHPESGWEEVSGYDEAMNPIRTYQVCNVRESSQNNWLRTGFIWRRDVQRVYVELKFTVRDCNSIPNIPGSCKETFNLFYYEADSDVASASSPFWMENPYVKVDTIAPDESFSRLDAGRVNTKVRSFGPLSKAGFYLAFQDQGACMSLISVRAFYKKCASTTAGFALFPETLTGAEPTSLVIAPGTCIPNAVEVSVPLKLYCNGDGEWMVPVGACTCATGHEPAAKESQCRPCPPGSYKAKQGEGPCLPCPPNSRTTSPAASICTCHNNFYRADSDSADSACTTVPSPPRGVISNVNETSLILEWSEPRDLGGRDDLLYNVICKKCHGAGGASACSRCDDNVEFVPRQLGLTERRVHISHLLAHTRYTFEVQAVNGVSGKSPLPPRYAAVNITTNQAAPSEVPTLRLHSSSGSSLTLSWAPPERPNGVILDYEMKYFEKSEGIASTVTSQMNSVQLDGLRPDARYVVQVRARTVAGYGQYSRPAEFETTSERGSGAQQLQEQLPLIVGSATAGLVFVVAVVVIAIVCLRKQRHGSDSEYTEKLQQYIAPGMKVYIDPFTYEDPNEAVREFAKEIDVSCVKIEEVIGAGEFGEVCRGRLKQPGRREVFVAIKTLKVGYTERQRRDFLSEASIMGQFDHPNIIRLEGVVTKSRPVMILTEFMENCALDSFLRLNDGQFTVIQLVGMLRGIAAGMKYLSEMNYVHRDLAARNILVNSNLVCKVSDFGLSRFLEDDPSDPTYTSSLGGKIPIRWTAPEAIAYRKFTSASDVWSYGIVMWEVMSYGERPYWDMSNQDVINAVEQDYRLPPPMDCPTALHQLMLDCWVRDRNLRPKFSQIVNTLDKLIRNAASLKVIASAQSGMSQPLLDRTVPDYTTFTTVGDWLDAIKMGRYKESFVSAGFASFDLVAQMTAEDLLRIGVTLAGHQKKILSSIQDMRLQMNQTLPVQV

[11] = tested on: Tyrosine-protein kinase ABL1 (Homo sapiens), P00519 [Q252H]; conditions: Compound concentration 1000.0 nM
[12] = target: Serine/threonine-protein kinase RIO1 (Homo sapiens) (UniProt Q9BRS2); conditions: Compound concentration 1000.0 nM
[13] = target: Glycogen synthase kinase-3 beta (Homo sapiens) (UniProt P49841); conditions: Compound concentration 1000.0 nM
[14] = target: Tyrosine-protein kinase Fgr (Homo sapiens) (UniProt P09769); conditions: Compound concentration 1000.0 nM
[15] = target: T2, Ephrin type-B receptor 1 (Homo sapiens) (UniProt P54762); conditions: Compound concentration 1000.0 nM
T2 sequence (whole entry): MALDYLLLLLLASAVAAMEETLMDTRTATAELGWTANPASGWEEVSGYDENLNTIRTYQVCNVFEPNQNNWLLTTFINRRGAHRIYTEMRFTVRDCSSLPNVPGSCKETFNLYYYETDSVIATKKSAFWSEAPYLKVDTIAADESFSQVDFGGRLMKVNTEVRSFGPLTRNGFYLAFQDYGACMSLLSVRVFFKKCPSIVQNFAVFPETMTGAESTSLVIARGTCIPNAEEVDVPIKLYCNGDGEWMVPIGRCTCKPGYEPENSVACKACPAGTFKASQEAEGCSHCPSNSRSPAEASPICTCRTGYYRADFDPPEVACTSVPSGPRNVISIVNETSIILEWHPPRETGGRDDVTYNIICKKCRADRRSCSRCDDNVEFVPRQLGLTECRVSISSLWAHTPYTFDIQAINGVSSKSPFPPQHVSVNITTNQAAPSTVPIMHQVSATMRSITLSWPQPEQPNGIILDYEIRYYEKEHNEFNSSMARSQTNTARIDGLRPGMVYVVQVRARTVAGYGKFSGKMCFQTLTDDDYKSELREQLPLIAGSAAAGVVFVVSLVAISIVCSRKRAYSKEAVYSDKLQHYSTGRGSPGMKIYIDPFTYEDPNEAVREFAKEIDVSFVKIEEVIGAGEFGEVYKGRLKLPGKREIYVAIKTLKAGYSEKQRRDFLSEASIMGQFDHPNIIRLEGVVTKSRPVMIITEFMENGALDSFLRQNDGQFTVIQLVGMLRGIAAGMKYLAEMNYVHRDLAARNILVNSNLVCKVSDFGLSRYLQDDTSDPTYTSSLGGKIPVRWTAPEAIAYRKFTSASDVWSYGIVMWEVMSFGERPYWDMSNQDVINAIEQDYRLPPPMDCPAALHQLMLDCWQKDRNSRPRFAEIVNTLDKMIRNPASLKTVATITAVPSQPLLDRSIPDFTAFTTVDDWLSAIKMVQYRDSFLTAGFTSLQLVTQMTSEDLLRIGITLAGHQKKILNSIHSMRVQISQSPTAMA

[16] = target: Ribosomal protein S6 kinase alpha-2 (Homo sapiens) (UniProt Q15349); conditions: Compound concentration 1000.0 nM
[17] = target: Cyclin-dependent kinase 16 (Homo sapiens) (UniProt Q00536); conditions: Compound concentration 1000.0 nM
[18] = target: Muscarinic acetylcholine receptor M5 (Homo sapiens) (UniProt P08912); conditions: Compound concentration 10.0 uM
Muscarinic acetylcholine receptor M5 (Homo sapiens), sequence (P08912 whole entry): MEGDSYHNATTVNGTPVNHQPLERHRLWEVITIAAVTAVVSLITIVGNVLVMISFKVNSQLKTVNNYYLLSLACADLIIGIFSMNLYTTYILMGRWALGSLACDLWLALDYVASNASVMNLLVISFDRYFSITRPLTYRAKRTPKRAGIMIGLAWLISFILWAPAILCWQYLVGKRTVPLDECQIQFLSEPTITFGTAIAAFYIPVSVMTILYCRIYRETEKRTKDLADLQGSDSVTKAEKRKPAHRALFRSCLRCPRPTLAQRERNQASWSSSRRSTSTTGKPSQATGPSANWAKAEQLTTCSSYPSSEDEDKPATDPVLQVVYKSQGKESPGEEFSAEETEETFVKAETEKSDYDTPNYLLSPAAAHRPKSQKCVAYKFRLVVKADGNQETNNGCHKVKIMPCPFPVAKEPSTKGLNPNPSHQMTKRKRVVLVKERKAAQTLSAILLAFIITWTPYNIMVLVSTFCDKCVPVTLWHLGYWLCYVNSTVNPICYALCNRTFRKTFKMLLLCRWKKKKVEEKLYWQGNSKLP

MAP kinase-interacting serine/threonine-protein kinase 2 (Homo sapiens), sequence (Q9HBH9 whole entry, looked up): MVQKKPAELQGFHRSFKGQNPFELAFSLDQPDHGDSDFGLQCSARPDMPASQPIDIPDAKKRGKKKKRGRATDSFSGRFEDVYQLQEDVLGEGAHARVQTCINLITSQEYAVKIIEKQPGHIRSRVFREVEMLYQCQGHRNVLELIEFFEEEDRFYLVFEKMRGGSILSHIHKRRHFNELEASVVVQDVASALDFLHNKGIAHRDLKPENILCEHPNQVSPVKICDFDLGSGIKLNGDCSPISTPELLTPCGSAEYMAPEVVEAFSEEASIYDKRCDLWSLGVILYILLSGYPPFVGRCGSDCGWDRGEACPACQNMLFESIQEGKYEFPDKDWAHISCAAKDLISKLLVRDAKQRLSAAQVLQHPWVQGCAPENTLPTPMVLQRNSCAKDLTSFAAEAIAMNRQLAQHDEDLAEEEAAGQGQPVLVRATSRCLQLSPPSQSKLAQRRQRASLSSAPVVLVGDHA
Tyrosine-protein kinase Fgr (Homo sapiens), sequence (P09769 2-529 limits assumed): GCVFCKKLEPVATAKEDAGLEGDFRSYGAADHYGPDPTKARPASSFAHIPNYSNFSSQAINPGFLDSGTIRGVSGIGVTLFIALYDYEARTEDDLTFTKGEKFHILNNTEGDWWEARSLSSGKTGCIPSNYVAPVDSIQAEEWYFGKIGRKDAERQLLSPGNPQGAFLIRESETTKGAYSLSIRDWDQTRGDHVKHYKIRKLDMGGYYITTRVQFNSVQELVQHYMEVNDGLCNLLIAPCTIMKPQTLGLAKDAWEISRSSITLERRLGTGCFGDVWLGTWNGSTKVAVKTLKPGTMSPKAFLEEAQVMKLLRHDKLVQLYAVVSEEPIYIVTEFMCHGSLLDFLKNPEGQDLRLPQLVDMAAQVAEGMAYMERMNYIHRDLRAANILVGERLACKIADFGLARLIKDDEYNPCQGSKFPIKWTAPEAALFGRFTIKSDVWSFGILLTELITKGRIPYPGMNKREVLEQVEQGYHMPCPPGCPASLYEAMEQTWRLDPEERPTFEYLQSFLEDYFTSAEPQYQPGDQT
Ribosomal protein S6 kinase alpha-1 (Homo sapiens), sequence (Q15418 whole entry): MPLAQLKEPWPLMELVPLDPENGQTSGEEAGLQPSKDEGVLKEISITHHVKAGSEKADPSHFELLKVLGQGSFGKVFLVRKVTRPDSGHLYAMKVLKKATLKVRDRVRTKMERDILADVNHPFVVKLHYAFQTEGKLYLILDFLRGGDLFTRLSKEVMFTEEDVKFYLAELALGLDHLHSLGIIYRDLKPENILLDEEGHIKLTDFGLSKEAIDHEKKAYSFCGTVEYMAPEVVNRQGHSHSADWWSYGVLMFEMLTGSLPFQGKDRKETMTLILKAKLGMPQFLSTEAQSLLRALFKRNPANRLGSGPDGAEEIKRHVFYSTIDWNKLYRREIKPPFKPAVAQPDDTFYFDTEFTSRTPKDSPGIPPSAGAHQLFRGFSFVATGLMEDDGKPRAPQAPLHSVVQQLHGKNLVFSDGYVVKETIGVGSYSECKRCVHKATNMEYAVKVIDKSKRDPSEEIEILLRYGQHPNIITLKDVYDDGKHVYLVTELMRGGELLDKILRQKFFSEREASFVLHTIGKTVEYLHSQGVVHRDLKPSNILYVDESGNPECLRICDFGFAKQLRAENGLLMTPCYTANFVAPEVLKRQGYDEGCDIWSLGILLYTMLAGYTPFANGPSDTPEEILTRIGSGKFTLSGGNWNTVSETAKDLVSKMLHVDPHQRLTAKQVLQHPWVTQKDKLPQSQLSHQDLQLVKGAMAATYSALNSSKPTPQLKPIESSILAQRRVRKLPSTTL
Calcium/calmodulin-dependent protein kinase kinase 2 (Homo sapiens), sequence (Q96RR4 2-588 limits assumed): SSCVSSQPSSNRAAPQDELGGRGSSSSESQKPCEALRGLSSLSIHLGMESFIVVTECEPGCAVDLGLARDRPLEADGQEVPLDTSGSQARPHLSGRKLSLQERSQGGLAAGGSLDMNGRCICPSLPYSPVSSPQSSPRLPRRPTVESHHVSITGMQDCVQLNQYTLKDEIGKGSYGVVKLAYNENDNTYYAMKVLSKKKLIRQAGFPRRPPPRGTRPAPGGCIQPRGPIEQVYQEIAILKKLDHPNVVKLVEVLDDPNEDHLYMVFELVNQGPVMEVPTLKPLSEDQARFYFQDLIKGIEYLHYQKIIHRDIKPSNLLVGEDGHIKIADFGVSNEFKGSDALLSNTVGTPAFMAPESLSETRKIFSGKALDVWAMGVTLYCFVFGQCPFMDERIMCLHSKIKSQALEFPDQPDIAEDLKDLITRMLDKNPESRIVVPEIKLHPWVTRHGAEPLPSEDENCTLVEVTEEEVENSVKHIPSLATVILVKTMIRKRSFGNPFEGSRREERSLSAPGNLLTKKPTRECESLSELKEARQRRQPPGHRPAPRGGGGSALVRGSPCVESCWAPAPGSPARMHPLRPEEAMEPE
Serine/threonine-protein kinase RIO1 (Homo sapiens), sequence (Q9BRS2 whole entry): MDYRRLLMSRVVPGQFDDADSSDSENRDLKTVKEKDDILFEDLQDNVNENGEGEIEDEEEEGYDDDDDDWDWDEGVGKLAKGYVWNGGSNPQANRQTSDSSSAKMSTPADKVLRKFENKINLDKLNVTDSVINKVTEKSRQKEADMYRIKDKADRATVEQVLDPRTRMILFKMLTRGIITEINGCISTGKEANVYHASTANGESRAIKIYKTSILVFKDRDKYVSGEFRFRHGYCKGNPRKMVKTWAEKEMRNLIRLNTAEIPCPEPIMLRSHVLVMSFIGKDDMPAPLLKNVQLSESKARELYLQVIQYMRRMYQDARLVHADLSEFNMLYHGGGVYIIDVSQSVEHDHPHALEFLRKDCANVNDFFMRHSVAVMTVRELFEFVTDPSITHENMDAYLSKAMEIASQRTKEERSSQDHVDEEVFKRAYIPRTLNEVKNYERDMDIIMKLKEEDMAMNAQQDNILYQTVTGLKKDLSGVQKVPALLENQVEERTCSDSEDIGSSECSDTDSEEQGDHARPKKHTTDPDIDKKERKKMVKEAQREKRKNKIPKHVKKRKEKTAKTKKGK
Mitogen-activated protein kinase 9 (Homo sapiens), sequence (P45984 whole entry, looked up): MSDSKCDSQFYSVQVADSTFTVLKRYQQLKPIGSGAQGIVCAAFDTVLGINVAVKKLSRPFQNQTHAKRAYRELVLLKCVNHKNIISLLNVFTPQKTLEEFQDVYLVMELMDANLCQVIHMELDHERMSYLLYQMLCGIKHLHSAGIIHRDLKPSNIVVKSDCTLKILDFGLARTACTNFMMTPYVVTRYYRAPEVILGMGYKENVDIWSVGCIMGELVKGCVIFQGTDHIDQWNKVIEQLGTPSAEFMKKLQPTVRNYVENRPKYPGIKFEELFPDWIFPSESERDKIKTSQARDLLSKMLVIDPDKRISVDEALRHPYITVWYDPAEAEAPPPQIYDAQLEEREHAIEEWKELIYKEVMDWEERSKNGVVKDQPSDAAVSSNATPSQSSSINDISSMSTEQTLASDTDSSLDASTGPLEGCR
RAC-beta serine/threonine-protein kinase (Homo sapiens), sequence (P31751 whole entry): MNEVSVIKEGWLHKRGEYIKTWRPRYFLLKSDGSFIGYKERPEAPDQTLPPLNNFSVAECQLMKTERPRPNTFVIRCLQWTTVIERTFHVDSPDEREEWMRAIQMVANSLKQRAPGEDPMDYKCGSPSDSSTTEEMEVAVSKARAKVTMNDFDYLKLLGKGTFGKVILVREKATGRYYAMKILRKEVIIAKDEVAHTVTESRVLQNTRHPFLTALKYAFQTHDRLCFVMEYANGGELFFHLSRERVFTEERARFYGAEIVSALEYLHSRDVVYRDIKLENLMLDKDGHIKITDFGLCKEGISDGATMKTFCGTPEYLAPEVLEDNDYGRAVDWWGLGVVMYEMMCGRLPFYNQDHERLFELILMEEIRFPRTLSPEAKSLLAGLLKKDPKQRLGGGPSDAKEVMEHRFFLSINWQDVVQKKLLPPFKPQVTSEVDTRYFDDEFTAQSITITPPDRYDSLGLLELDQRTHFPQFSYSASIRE
Receptor-interacting serine/threonine-protein kinase 1 (Homo sapiens), sequence (Q13546 whole entry): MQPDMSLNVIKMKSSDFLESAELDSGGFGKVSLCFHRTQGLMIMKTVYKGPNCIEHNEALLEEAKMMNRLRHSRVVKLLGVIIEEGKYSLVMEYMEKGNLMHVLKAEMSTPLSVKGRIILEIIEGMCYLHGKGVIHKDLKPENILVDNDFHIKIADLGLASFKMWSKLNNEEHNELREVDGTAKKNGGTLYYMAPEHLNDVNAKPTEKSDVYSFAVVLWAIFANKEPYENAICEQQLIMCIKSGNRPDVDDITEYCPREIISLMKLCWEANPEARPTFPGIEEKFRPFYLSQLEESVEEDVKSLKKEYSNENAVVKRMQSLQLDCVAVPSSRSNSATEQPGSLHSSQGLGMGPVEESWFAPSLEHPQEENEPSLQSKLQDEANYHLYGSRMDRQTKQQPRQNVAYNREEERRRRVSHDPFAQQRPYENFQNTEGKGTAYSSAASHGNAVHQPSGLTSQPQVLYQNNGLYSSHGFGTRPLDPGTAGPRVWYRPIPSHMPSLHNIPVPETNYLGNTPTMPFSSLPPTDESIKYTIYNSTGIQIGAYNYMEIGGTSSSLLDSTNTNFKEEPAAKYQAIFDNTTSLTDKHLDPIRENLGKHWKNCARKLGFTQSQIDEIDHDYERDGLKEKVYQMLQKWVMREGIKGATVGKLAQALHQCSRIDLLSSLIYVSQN

| SMILES | residual activity [1] [%] | residual activity [2] [%] | residual activity [3] [%] | residual activity [4] [%] | residual activity [5] [%] | residual activity [6] [%] | residual activity [7] [%] | residual activity [8] [%] | residual activity [9] [%] | residual activity [10] [%] | residual activity [11] [%] | residual activity [12] [%] | residual activity [13] [%] | residual activity [14] [%] | residual activity [15] [%] | residual activity [16] [%] | residual activity [17] [%] | inhibition [18] [%] |
| --- | --- | --- | --- | --- | --- | --- | --- | --- | --- | --- | --- | --- | --- | --- | --- | --- | --- | --- |
| CN(C)C(=O)Cn1cc(-c2nc(C3(c4ccc(-c5cnc(N)nc5)cc4)CC3)no2)cn1 [BI 0153] | 100 | 100 | 100 | 86 | 94 | 80 | 89 | 81 | 77 | 95 | 48 | 100 | 81 | 100 | 100 | 100 | 80 | -1.63 |
| CN(C)C(=O)Cn1cc(-c2nc([C@@](C)(c3ccc(-c4cnc(N)nc4)cc3)C3CC3)no2)cn1 [BI 665915] | 99 | 84 | 100 | 75 | 88 | 86 | 82 | 75 | 90 | 100 | 0 | 100 | 100 | 100 | 100 | 85 | 86 | 5.21 |
